# Laboratory results from article PMC6797481, “Identification of an allosteric binding site on the human glycine transporter, GlyT2, for bioactive lipid analgesics” (eLife, 2019).
# Where a chain is given by its changes, count along the chain named.
# How the values were obtained:
# GlyT1 L425I mutant = target: T1, GlyT1 L425I mutant (Homo sapiens, UniProt P48067, L439I); test: Glycine transport currents, two electrode voltage clamp, oocytes expressing GlyT1 L425I; assay type: cell-based; details: for % Max. inhibition: mean ± SEM; for sensitivity of GlyT1 L425I to inhibition: similar to the WT GlyT1 response
# T1 construct: expressed in transfected cells; host or cells: Xenopus laevis oocytes (cRNA injection)
# T1 sequence (P48067 1-652 isoform P48067-3 L385I): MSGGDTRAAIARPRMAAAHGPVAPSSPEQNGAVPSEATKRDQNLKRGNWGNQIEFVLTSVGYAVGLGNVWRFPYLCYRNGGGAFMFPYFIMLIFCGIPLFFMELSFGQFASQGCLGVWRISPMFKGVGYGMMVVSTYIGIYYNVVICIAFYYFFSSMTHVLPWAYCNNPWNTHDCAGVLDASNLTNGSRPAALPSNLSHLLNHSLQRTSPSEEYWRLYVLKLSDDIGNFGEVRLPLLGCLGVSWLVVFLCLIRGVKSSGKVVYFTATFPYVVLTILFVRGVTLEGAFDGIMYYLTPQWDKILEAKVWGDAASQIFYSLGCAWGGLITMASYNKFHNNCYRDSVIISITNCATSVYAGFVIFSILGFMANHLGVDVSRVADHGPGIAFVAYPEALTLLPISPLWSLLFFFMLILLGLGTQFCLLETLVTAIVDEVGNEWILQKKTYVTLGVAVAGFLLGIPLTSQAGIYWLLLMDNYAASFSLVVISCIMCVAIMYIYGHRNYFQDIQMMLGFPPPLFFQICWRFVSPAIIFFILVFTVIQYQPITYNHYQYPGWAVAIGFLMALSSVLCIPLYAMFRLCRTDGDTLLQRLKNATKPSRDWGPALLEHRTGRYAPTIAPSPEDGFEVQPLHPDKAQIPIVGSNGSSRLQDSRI
# Experimental: (§1) Glycine was first applied to establish maximal transport current.
# (§2) Compounds were tested for inhibition of glycine transport on Xenopus laevis oocytes expressing mutant GlyT1 and GlyT2 transporters. n values are in brackets, with measurements taken from at least 2 batches of oocytes.
# GlyT2 P561S mutant = target: T2, GlyT2 P561S mutant (Homo sapiens, UniProt Q9Y345, P561S); test: Glycine transport currents, two electrode voltage clamp, oocytes expressing GlyT2 P561S; assay type: cell-based; details: for IC50 / % Max. inhibition: GlyT2 P561S; for % Max. inhibition: mean ± SEM
# T2 construct: expressed in transfected cells; host or cells: Xenopus laevis oocytes (cRNA injection)
# T2 sequence (Q9Y345 1-797 P561S): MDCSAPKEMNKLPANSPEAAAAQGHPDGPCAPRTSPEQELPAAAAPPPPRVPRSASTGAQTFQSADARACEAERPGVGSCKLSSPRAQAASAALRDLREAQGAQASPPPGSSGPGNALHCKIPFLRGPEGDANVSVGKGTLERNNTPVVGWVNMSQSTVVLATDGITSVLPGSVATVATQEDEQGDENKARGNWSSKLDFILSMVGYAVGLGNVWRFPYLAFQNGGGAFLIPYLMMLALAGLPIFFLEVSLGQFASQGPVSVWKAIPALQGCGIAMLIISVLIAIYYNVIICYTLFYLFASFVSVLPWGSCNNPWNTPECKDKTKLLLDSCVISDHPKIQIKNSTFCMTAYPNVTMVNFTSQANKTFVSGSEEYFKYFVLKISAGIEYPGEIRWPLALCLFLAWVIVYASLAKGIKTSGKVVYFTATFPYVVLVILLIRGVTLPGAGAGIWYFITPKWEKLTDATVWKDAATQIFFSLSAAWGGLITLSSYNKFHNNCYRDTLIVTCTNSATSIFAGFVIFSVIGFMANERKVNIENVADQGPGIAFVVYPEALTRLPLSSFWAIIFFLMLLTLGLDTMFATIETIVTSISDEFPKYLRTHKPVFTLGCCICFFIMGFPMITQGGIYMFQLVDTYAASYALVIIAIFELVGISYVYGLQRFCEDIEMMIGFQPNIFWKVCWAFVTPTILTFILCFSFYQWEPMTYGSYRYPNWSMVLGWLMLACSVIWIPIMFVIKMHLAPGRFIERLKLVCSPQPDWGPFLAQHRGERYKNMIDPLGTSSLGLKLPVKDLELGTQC
# Experimental: as §1, §2
# GlyT2 WT = target: T3, GlyT2 WT (Homo sapiens, UniProt Q9Y345); design: expressed in transfected cells; host or cells: Xenopus laevis oocytes (cRNA injection); details: cited from earlier work; for IC50 / GlyT2 % max. inhibition: WT GlyT2, previously published; for IC50: mean (95% CI); for GlyT2 % max. inhibition: mean ± SEM; for mechanism of inhibition: versus substrate glycine, ref Mostyn et al., 2019, Wiles et al., 2006
# T3 sequence (Q9Y345 1-797): T2 sequence (Q9Y345 1-797 P561S) with S561P
# [1] = GlyT1 L425I, greater than maximum concentration applied (footnote a)
Molecule,IC50 (GlyT2 WT) [nM],GlyT2 % max. inhibition (GlyT2 WT) [%],IC50 (GlyT1 L425I mutant; [1]) [nM],% Max. inhibition (GlyT1 L425I mutant; GlyT1 L425I),IC50 (GlyT2 P561S mutant; mean (95% CI)) [nM],% Max. inhibition (GlyT2 P561S mutant),other results
NCC(=O)O [Glycine],,,,,,,"EC50 (GlyT1 L425I mutant; glycine transport, GlyT1 mutant printed I425L (EL4)): 45100 ± 9600 nM; EC50 (GlyT2 P561S mutant; glycine transport, GlyT2 P561S (TM8)): 15500 ± 4100 nM"
"CCCCC/C=C\C/C=C\C/C=C\C/C=C\CCCC(=O)NCC(=O)O [N-arachidonyl Glycine, reference compound]",9100,79.6 ± 2.1,> 10000,31.6 ± 6.9 (p=0.0361) %,,,mechanism of inhibition (GlyT2 WT): not competitive
"CCCCCCCC/C=C\CCCCCCCC(=O)NCC(=O)O [N-oleoyl Glycine, reference compound]",500,66.8 ± 2.8,> 10000,,564,62.1 ± 4.8 (p=0.9242) %,"% Max. inhibition (% inhibition at the highest concentration of inhibitor used) (GlyT1 L425I mutant; GlyT1 L425I, footnote b): 28.5 ± 5.3^b (p=0.0564) %; sensitivity of GlyT1 L425I to inhibition (GlyT1 L425I mutant): insensitive"
"CCCCCCCC/C=C\CCCCCCCC(=O)O[C@H](CC(=O)[O-])C[N+](C)(C)C [oleoyl L-Carnitine, reference compound]",340,71.5 ± 5.7,,74.6%,,31.6 ± 5.2 (p=0.0001) %,IC50 (GlyT2 P561S mutant; greater than maximum concentration applied (footnote a)): > 3000 nM
CCCCCCCC/C=C\CCCCCCCC(=O)N[C@@H](CC(=O)O)C(=O)O [oleoyl l-Aspartate],865,76.7 ± 5.3,,,2540,58.2 ± 4.7 (p=0.0954) %,
CCCCCCCC/C=C\CCCCCCCC(=O)N[C@@H](CCCCN)C(=O)O [oleoyl l-Lysine],,86.8 ± 2.4,,95.6%,69.2,71.5 ± 4.8 (p=0.0758) %,"mechanism of inhibition (GlyT2 WT): not competitive; fold lower apparent affinity at GlyT1 L425I (GlyT1 L425I mutant; GlyT1 L425I compared with WT GlyT2): 9 fold; IC50 (GlyT1 L425I mutant; GlyT1 L425I, mean (95% CI)): 236 nM"
CCCCCCCC/C=C\CCCCCCCC(=O)N[C@@H](Cc1c[nH]c2ccccc12)C(=O)O [oleoyl l-Tryptophan],,86.2 ± 3.8,> 3000,35.7 ± 13.2 (p=0.2787) %,318,61.4 ± 4.2 (p=0.0001) %,sensitivity of GlyT1 L425I to inhibition (GlyT1 L425I mutant): insensitive
CCCCCCCC/C=C\CCCCCCCC(=O)N[C@H](C(=O)O)C(C)C [oleoyl l-Valine],1170,90.9 ± 5.9,,,753,94.5 ± 4.7 (p=0.9462) %,
oleoyl d-Lysine,48.3,91.0 ± 1.9,,,558,76.7 ± 8.1 (p=0.4299) %,
